# From paper PMC9612383, “Biological Activity of NHC-Gold-Alkynyl Complexes Derived from 3-Hydroxyflavones” (Pharmaceutics, 2022)
# Like-named read-outs stand apart in the source and are kept apart here.
# Assays:
# [1] = system: panel of Gram-positive and Gram-negative strains; assay: Disk diffusion method, whole panel (summary in words); assay type: cell-based; conditions: for antibacterial effect (in words): whole panel, Gram-positive and Gram-negative strains
# Description: (§1) To evaluate the antibacterial potential of gold derivatives, […] bacterial strains were selected: E. coli, P. aeruginosa, S. enterica, E. faecalis, L. monocytogenes, S. epidermidis, S. aureus. Dis diffusion assay was performed following Clinical & Laboratory Standards Institute (CLSI) recommendations. Active cultures (0.5 McFarland) from all strains were spread onto Mueller–Hinton Agar (MHA, Oxoid, Basingstoke, UK) and disks impregnated with 10 µL of each gold complex or control (DMSO for negative control, phenol for positive control) were placed. Plates were and incubated for 22 h ± 2 h at 37 °C ± 1 °C and then the diameter of the inhibition zone was determined.
# Given that NHC-gold derivatives might display antibacterial activity, we evaluated the antibacterial effect of the complexes toward a panel of Gram-positive and Gram-negative strains using the disk diffusion method. The selected strains are human pathogen or commensal bacteria and the results are summarized on Table 1.
# Caco-2 cells [2] = assay: MTT antiproliferative assay; assay type: cell-based, Human; conditions: for IC50: Caco-2 cell line, 72 h incubation, mean ± SE
# Description: Human colorectal adenocarcinoma Caco-2 cells were kindly provided by Dr. Edith Brot-Laroche (Universite Pierre et Marie Curie-Paris 6 UMR S872, Les Cordeliers, France) and were maintained in a humidified atmosphere of 5% CO2 at 37 °C in Dulbecco’s Modified Eagles medium (DMEM) (Gibco Invitrogen, Paisley, UK) supplemented with 20% fetal bovine serum, 1% non-essential amino acids, 1% penicillin (1000 U/mL), 1% streptomycin ([…]) and 1% amphotericin (250 U/mL). For treatment, gold complexes were initially dissolved in DMSO to a concentration of 20 mM and then diluted on cell culture without fetal bovine serum to the required work concentrations, which was added 24 h post-seeding. Then, cells were incubated at 37 °C for the required time for each assay.
# Cell viability was determined with the 3-(4,5-dimethyl-2-thiazoyl)-2,5-diphenyltetrazolium bromide (MTT) assay as previously described by Mármol et al.. For IC50 calculation, cells were grown in 96-well plates at a density of 4000 cells per well and incubated overnight at standard culture conditions. Then, cells were exposed 72 h to 0–20 μM of each gold complex and changes in absorbance were converted into percentage of growth inhibition in comparison to negative control (DMSO. Absorbance was measured with SPECTROstar Nano (BMG Labtech).
# [3] = n-Octanol-water distribution coefficient, shake-flask; assay type: physicochemical; conditions: for LogP7.4 (distribution coefficient): n-octanol / buffered aqueous solution pH 7.4
# Description: The n-octanol-water coefficients of the complexes were determined as previously reported using a shake-flask method. Buffered-saline distilled water (100 mL, phosphate buffer [PO4^3−] = 10 mM, [NaCl] = 0.15 M, pH 7.4) and n-octanol (100 mL) were shaken for 72 h to allow saturation of both phases. Approximately 1 mg of the complexes was dissolved in 5 mL of the aqueous phase and 5 mL of the organic phase were added, mixing for 10 min. The resulting emulsion was centrifuged to separate the phases. The concentration of the compounds in each phase was determined using UV absorbance spectroscopy. LogP was defined as log{[compound(organic)]/[compound(aqueous)]}.
# E. faecalis = assay: Disk diffusion test; assay type: cell-based; conditions: for Inhibition Zone: complex 5 μg, 24 h incubation, diameter including disk (6 mm)
# Description: (§2) To evaluate the antibacterial potential of gold derivatives, six bacterial strains were selected: E. coli, P. aeruginosa, S. enterica, E. faecalis, L. monocytogenes, S. epidermidis, S. aureus. Dis diffusion assay was performed following Clinical & Laboratory Standards Institute (CLSI) recommendations. […] Plates were and incubated for 22 h ± 2 h at 37 °C ± 1 °C and then the diameter of the inhibition zone was determined.
# L. monocytogenes = assay: Disk diffusion test; assay type: cell-based; conditions: for Inhibition Zone: complex 5 μg, 24 h incubation, diameter including disk (6 mm)
# Description: as §2
# P. aeruginosa = assay: Disk diffusion test; assay type: cell-based; conditions: for Inhibition Zone: complex 5 μg, 24 h incubation, diameter including disk (6 mm)
# Description: as §2
# S. aureus 13565 = assay: Disk diffusion test; assay type: cell-based; conditions: for Inhibition Zone: complex 5 μg, 24 h incubation, diameter including disk (6 mm)
# Description: as §2
# S. aureus 2593 = assay: Disk diffusion test; assay type: cell-based; conditions: for Inhibition Zone: complex 5 μg, 24 h incubation, diameter including disk (6 mm)
# Description: as §2
# S. epidermidis = assay: Disk diffusion test; assay type: cell-based; conditions: for Inhibition Zone: complex 5 μg, 24 h incubation, diameter including disk (6 mm)
# Description: as §2
# E. coli 13216 = assay: Disk diffusion test; assay type: cell-based
# Description: as §2
# E. coli 8739 = assay: Disk diffusion test; assay type: cell-based
# Description: as §2
# S. enterica 25928 = assay: Disk diffusion test; assay type: cell-based; conditions: Salmonella enterica, 25928; positive control 5.35 mg, 24 h incubation; diameter including disk (6 mm)
# Description: as §1
# E. coli 25922 = assay: Disk diffusion test; assay type: cell-based; conditions: Escherichia coli, 25922, 24 h, read-out: Inhibition Zone
# Description: as §2
# S. enterica 14028 = assay: Disk diffusion test; assay type: cell-based; conditions: Salmonella enterica, 14028, 24 h, read-out: Inhibition Zone
# Description: as §2
# Caco-2 cells [4] = system: Caco-2 cells; design: method as in PMID 31546196; conditions: earlier work of the authors; cited from earlier work
# [5] = system: thioredoxin reductase enzyme; design: method as in PMID 31546196; conditions: earlier work of the authors; cited from earlier work
# Caco-2 cells [6] = system: Caco-2 cells; design: method as in PMID 31546196; conditions: cited from earlier work
# [7] = design: method as in PMID 31546196; conditions: cited from earlier work
# [8] = complex 5 μg, 24 h incubation, diameter including disk (6 mm)
smiles,measurement,setting,value
"Cn1cc[n+](C)[c]1[Au-][C]#CCOc1c(-c2ccccc2)oc2ccccc2c1=O [1a, [Au(La)(IMe)] (R = H; IMe = C5H10N2)]",antibacterial effect (in words),[1],no antibacterial effect
same,IC50,Caco-2 cells [2],43.3 ± 5.06 µM
same,LogP7.4 (distribution coefficient),[3],0.34
"Cn1cc[n+](C)[c]1[Au-][C]#CCOc1c(-c2ccc(Cl)cc2)oc2ccccc2c1=O [1c, [Au(Lc)(IMe)] (R = Cl; IMe = C5H10N2)]",antibacterial effect (in words),[1],no antibacterial effect
same,IC50,Caco-2 cells [2],15.1 ± 3.04 µM
same,LogP7.4 (distribution coefficient),[3],1.96
"COc1ccc(-c2oc3ccccc3c(=O)c2OCC#[C][Au-][c]2n(C)cc[n+]2C)cc1 [1d, [Au(Ld)(IMe)] (R = OMe; IMe = C5H10N2)]",Inhibition Zone,E. faecalis,9.47 ± 1.67 mm
same,Inhibition Zone,L. monocytogenes,14.25 ± 1.06 mm
same,Inhibition Zone,P. aeruginosa,-
same,Inhibition Zone,S. aureus 13565,11.86 ± 0.20 mm
same,Inhibition Zone,S. aureus 2593,9.70 ± 0.02 mm
same,Inhibition Zone,S. epidermidis,17.23 ± 0.87 mm
same,antibacterial effect on Gram-negative strains (in words),[1],inactive against Gram-negative strains
same,antibacterial effect on Gram-positive strains (in words),[1],able to inhibit the growth of all Gram-positive bacterial strains
same,IC50,Caco-2 cells [2],16.3 ± 1.04 µM
same,LogP7.4 (distribution coefficient),[3],0.22
"CC(C)c1cccc(C(C)C)c1-n1cc[n+](-c2c(C(C)C)cccc2C(C)C)[c]1[Au-][C]#CCOc1c(-c2ccccc2)oc2ccccc2c1=O [2a, [Au(La)(IPr)] (R = H; IPr = C27H38N2)]",fold lower IC50 of 2a than homologue 1a,"Caco-2 cells [2]; Caco-2, 72 h, p < 0.05",2.65 times
same,IC50,Caco-2 cells [2],16.3 ± 2.04 µM
same,lipophilic character (in words),"[3]; from log P, pH 7.4",balanced hydrophilic-lipophilic character
same,LogP7.4 (distribution coefficient),[3],0.42
"CC(C)c1cccc(C(C)C)c1-n1cc[n+](-c2c(C(C)C)cccc2C(C)C)[c]1[Au-][C]#CCOc1c(-c2ccc(Br)cc2)oc2ccccc2c1=O [2b, [Au(Lb)(IPr)] (R = Br; IPr = C27H38N2)]",Inhibition Zone,E. coli 13216; [8],8.10 ± 0.60 mm
same,Inhibition Zone,E. coli 8739; [8],8.97 ± 0.49 mm
same,Inhibition Zone,E. faecalis,12.1 ± 0.99 mm
same,Inhibition Zone,L. monocytogenes,17.17 ± 0.24 mm
same,Inhibition Zone,P. aeruginosa,-
same,Inhibition Zone,S. aureus 13565,14.03 ± 0.17 mm
same,Inhibition Zone,S. aureus 2593,12.79 ± 1.11 mm
same,Inhibition Zone,S. epidermidis,20.95 ± 0.91 mm
same,antibacterial effect (in words),[1],able to interfere with the development of both Gram positive and Gram negative strains
same,IC50,Caco-2 cells [2],53.9 ± 22.7 µM
same,LogP7.4 (distribution coefficient),[3],1.47
"CC(C)c1cccc(C(C)C)c1-n1cc[n+](-c2c(C(C)C)cccc2C(C)C)[c]1[Au-][C]#CCOc1c(-c2ccc(Cl)cc2)oc2ccccc2c1=O [2c, [Au(Lc)(IPr)] (R = Cl; IPr = C27H38N2)]",Inhibition Zone,E. faecalis,10.25 ± 1.41 mm
same,Inhibition Zone,L. monocytogenes,15.33 ± 0.47 mm
same,Inhibition Zone,P. aeruginosa,-
same,Inhibition Zone,S. aureus 13565,12.19 ± 0.88 mm
same,Inhibition Zone,S. aureus 2593,10.49 ± 1.13 mm
same,Inhibition Zone,S. epidermidis,18.06 ± 2.04 mm
same,antibacterial effect on Gram-negative strains (in words),[1],inactive against Gram-negative strains
same,antibacterial effect on Gram-positive strains (in words),[1],able to inhibit the growth of all Gram-positive bacterial strains
same,IC50,Caco-2 cells [2],46.1 ± 22.5 µM
same,LogP7.4 (distribution coefficient),[3],1.11
"COc1ccc(-c2oc3ccccc3c(=O)c2OCC#[C][Au-][c]2n(-c3c(C(C)C)cccc3C(C)C)cc[n+]2-c2c(C(C)C)cccc2C(C)C)cc1 [2d, [Au(Ld)(IPr)] (R = OMe; IPr = C27H38N2)]",antibacterial effect (in words),[1],no antibacterial effect
same,IC50,Caco-2 cells [2],48.2 ± 14.6 µM
same,LogP7.4 (distribution coefficient),[3],3.40
"CC(=O)OC[C@H]1O[C@@H]([S-])[C@H](OC(C)=O)[C@@H](OC(C)=O)[C@@H]1OC(C)=O.CCP(CC)CC.[Au+] [Auranofin, 2,3,4,6-tetraacetyl-1-thio-β-D-glucopyranosato-S-triethylphosphane gold(I), reference compound]",IC50,Caco-2 cells [2],1.8 ± 0.1 µM
same,LogP7.4 (distribution coefficient),[3],−2.53
"Oc1ccccc1 [Phenol, reference compound]",zone of inhibition at 5350 µg/disc,S. enterica 25928,19.2 ± 0.42 mm
same,zone of inhibition at 5350 µg/disc,"E. coli 13216; Escherichia coli, 13216, 24 h, read-out: Inhibition Zone",20.7 ± 2.97 mm
same,zone of inhibition at 5350 µg/disc,E. coli 25922,23.4 ± 1.26 mm
same,zone of inhibition at 5350 µg/disc,"E. coli 8739; Escherichia coli, 8739, 24 h, read-out: Inhibition Zone",22.7 ± 1.37 mm
same,zone of inhibition at 5350 µg/disc,"E. faecalis; Enterococcus faecalis, 24 h, read-out: Inhibition Zone",13.5 ± 2.12 mm
same,zone of inhibition at 5350 µg/disc,"L. monocytogenes; Listeria monocytogenes, 24 h, read-out: Inhibition Zone",16.58 ± 0.12 mm
same,zone of inhibition at 5350 µg/disc,"P. aeruginosa; Pseudomonas aeruginosa, 24 h, read-out: Inhibition Zone",30.5 ± 1.45 mm
same,zone of inhibition at 5350 µg/disc,"S. aureus 13565; Staphylococcus aureus, 13565, 24 h, read-out: Inhibition Zone",17.2 ± 3.38 mm
same,zone of inhibition at 5350 µg/disc,"S. aureus 2593; Staphylococcus aureus, 2593, 24 h, read-out: Inhibition Zone",12.1 ± 0.73 mm
same,zone of inhibition at 5350 µg/disc,S. enterica 14028,27.8 ± 1.11 mm
same,zone of inhibition at 5350 µg/disc,"S. epidermidis; Staphylococcus epidermidis, 24 h, read-out: Inhibition Zone",22.7 ± 4.49 mm
O=c1c(OCC#[C][Au][PH](c2ccccc2)(c2ccccc2)c2ccccc2)c(-c2ccc(Br)cc2)oc2ccccc12 [[Au(L2b)PPh3]],ROS levels (in words),Caco-2 cells [4],induce an increase in ROS levels
same,thioredoxin reductase inhibition (in words),[5],able to inhibit thioredoxin reductase enzyme
O=c1c(OCC#[C][Au][PH](c2ccccc2)(c2ccccc2)c2ccccc2)c(-c2ccc(Cl)cc2)oc2ccccc12 [[Au(L2c)PPh3]],IC50,Caco-2 cells [6],5.34 ± 0.05 µM
same,distribution coefficient value,[7],1.17
"Cn1ccn(C)[c]1=[Au-2][Cl] [[AuCl(IMe)], reference compound]",IC50,Caco-2 cells [2],> 100 µM
same,antiproliferative effect (in words),Caco-2 cells [2]; Caco-2 cells,ineffective
"CC(C)c1cccc(C(C)C)c1-n1ccn(-c2c(C(C)C)cccc2C(C)C)[c]1=[Au][Cl] [[AuCl(IPr)], reference compound]",IC50,Caco-2 cells [2],9.09 ± 3.22 µM
